This passage reports Ki results from patent US4940780A, “Basically substituted phenylacetonitriles, their preparation and drugs containing these compounds” (BASF Aktiengesellschaft, priority 1986, dated 1990).

Where a name gives a salt, the structure may show the parent alone.

The target in one assay is T1, calcium channel (Cavia porcellus, UniProt A0A286X7I0).
T1 construct: membrane preparations of guinea pig skeletal muscle; from tissue; host or cells: guinea pig skeletal muscle, membrane preparation
The assay is described as follows: Bond to the calcium channel: displacement of the specific (S)-^3H-devapamil bond in membrane preparations of guinea pig skeletal muscle. It counts as binding. The note with it: guinea pig skeletal muscle membranes; 1 nM (S)-^3H-devapamil; 60 minutes, room temperature; 10^-10 to 10^-6 M test substance. The protocol:
(a) Bond to the calcium channel Displacement of the specific (S)-^3 H-devapamil bond in membrane preparations of guinea pig skeletal muscle
(§1) Membrane homogenate was incubated for 60 minutes at room temperature with increasing concentrations (from 10^-10 to 10^-6 M) of test substance and a fixed concentration of 1 nM of radioligand ((S)-^3 H-devapamil or ^3 H-ketanserine). The bound and the free radioligand were separated by filtration over a glass fiber filter, and the amount of radioligand retained on the filter was determined by liquid scintillation measurement. 2 tests with 3 batches were carried out.
(§2) The competition constants (Ki values in nM) were calculated by nonlinear regression analysis on an IBM computer using the program Ligand from Munson and Rodbard (Analytical Biochemistry 107 (1980), 220).

For another assay, the target named is T2, serotonin-S2-receptor (Rattus norvegicus, UniProt P14842).
T2 construct: membrane preparations of cerebral cortex of the rat; from tissue; host or cells: rat cerebral cortex, membrane preparation
The assay is described as follows: Bond to the serotonin-S2-receptor: displacement of the specific ^3H-ketanserine bond in membrane preparations of cerebral cortex of the rat. It counts as binding. The note with it: rat cerebral cortex membranes; 1 nM ^3H-ketanserine; 60 minutes, room temperature; 10^-10 to 10^-6 M test substance. Here is the method:
(b) Bond to the serotonin-S2 -receptor
Displacement of the specific ^3 H-ketanserine bond in membrane preparations of cerebral cortex of the rat
as §1, §2

T1 sequence (A0A286X7I0 1-1867): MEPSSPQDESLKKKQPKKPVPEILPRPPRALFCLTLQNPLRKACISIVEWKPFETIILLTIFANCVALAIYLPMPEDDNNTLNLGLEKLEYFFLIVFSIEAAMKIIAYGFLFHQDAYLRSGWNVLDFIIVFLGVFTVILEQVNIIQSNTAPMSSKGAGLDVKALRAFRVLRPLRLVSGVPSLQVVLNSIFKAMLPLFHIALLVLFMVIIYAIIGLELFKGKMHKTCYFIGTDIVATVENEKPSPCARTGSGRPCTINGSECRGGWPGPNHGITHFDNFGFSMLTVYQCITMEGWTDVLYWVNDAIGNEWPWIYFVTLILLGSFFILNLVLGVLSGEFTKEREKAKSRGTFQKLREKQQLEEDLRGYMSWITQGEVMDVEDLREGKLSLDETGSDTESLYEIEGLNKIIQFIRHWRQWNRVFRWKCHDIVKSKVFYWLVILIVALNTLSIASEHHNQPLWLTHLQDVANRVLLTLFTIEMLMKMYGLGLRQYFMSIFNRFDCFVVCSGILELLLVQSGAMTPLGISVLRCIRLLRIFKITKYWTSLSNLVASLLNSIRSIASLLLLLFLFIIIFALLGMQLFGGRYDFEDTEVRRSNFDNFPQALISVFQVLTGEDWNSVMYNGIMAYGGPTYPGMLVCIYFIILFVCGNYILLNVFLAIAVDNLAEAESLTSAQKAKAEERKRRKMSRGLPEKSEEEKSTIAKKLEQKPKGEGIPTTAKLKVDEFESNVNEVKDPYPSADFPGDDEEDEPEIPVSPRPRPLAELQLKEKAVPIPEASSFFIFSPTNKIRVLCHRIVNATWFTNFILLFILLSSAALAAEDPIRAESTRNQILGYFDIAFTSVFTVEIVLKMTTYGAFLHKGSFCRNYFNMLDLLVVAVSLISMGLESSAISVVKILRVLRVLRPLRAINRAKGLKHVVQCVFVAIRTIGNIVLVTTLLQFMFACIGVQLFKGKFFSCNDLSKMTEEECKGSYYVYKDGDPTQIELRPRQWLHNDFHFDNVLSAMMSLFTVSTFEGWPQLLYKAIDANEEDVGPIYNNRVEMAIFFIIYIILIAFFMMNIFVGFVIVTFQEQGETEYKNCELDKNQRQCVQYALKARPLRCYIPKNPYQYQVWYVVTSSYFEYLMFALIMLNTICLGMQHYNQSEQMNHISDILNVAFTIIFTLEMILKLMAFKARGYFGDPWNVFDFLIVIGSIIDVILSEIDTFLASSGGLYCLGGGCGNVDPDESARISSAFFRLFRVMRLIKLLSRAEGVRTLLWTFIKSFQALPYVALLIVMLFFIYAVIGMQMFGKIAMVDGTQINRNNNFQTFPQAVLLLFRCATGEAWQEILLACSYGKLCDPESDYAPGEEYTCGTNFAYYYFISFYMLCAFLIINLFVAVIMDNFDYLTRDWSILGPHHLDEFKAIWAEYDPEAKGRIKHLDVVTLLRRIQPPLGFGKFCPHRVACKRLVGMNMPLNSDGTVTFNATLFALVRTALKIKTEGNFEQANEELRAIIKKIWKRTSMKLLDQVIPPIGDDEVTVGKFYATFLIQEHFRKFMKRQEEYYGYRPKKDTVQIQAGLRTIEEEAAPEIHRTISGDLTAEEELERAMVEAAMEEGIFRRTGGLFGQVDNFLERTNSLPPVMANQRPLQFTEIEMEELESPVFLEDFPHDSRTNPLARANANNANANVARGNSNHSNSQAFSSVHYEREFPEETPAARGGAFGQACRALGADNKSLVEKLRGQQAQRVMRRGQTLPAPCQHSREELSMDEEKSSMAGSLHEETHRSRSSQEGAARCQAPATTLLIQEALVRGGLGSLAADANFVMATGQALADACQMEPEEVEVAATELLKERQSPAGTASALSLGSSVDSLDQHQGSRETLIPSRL
T2 sequence (P14842 whole entry): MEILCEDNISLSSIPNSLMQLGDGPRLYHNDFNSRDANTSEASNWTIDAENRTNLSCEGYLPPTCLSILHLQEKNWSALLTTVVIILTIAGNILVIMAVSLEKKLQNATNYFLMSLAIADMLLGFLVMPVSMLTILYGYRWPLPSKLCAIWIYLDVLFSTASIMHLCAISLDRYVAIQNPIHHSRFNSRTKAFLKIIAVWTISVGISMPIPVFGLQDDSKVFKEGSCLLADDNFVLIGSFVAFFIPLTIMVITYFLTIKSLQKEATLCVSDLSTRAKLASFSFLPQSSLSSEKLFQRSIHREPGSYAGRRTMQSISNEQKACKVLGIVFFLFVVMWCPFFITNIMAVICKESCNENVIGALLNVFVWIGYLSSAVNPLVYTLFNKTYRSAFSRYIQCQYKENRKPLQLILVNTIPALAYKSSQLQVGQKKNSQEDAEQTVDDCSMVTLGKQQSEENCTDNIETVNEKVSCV

In the case of `COc1cc([C@](C#N)(CCCN(C)CCC2CCCCC2)C(C)C)cc(OC)c1OC` [Example 13, (S)-5-[N-methyl-N-(2-cyclohexyl)-ethyl]-amino-2-(3,4,5-trimethoxyphenyl)-2-isopropylvaleronitrile hydrochloride], the inhibitory constant (Ki) at calcium channel came to 3.4 nM; at serotonin-S2-receptor, 3.3 nM.
For `COc1cc(C(C#N)(CCCN(C)CCC2CCCCC2)C(C)C)cc(OC)c1OC` (stereo not drawn) [Example 11, 5-[N-methyl-N-(2-cyclohexyl)-ethyl]-amino-2-(3,4,5-trimethoxyphenyl)-2-isopropylvaleronitrile] the same measures were 5.8 nM and 10.7 nM.
With `COc1ccc(C(C#N)(CCCN(C)CCC2CCCCC2)C(C)C)c([N+](=O)[O-])c1OC` (stereo not drawn) [Example 16, 5-[N-methyl-N-(2-cyclohexyl)ethyl]-amino-2-(2-nitro-3,4-dimethoxyphenyl)-2-isopropylvaleronitrile], the Ki on calcium channel is 34.2 nM; on serotonin-S2-receptor it was 3.6 nM.
With `CCCCCCCCN(C)CCC[C@@](C#N)(c1cc(OC)c(OC)c(OC)c1)C(C)C` [Example 6, (S)-5-[N-methyl-N-(n-octyl)]-amino-2-(3,4,5-trimethoxyphenyl)-2-isopropylvaleronitrile], the Ki on calcium channel was found to be 2.9 nM; on serotonin-S2-receptor it was 11.2 nM.
Regarding `CCCCCCCCN(C)CCCC(C#N)(c1cc(OC)c(OC)c(OC)c1)C(C)C` (stereo not drawn) [Example 4, 5-[N-methyl-N-(n-octyl)]-amino-2-(3,4,5-trimethoxyphenyl)-2-isopropylvaleronitrile], the Ki at calcium channel was found to be 5.2 nM; on serotonin-S2-receptor, 26.4 nM.
The matching figures for `COc1cccc(C(C#N)(CCCN(C)CCC2CCCCC2)C(C)C)c1` (stereo not drawn) [Example 1, 5-[N-methyl-N-(2-cyclohexyl)-ethyl]-amino-2-(3-methoxyphenyl)-2-isopropylvaleronitrile]: 16.2 nM and 5 nM.
For `COc1ccc(CCN(C)CCCC(C#N)(c2ccc(OC)c(OC)c2)C(C)C)cc1OC` (stereo not drawn) [Verapamil, verapamil, reference compound], on serotonin-S2-receptor, the Ki amounted to 177 nM.
For the compound `CCCCC=CCCN(C)CCCC(C#N)(c1cc(OC)c(OC)c(OC)c1)C(C)C` (stereo not drawn) [Example 15, 5-[N-methyl-N-(n-octen-3-yl)]-amino-2-(3,4,5-trimethoxyphenyl)-2-isopropylvaleronitrile hydrochloride], the Ki on calcium channel is 7.5 nM; at serotonin-S2-receptor, 6.8 nM.
The matching figures for `CCOc1cc(OCC)cc(C(C#N)(CCCN(C)CCC2CCCCC2)C(C)C)c1` (stereo not drawn) [Example 5, 5-[N-methyl-N-(2-cyclohexyl)-ethyl]-amino-2-(3,5-diethoxyphenyl)-2-isopropylvaleronitrile]: 11.9 nM and 20 nM.
The matching figures for `COc1cc(OC)cc(C(C#N)(CCCN(C)CCC2CCCCC2)C(C)C)c1` (stereo not drawn) [Example 10, 5-[N-methyl-N-(2-cyclohexyl)-ethyl]-amino-2-(3,5-dimethoxyphenyl)-2-isopropylvaleronitrile]: 9.2 nM and 2.8 nM.
With `CC(C)C(C#N)(CCCN(C)CCC1=CCCCC1)c1ccccc1` (stereo not drawn) [Example 18, 5-(N-methyl-N-[2-(cyclohexen-1-yl)ethyl]}-amino-2-phenyl-2-isopropylvaleronitrile], the figures for the inhibitory constant (Ki) at calcium channel and on serotonin-S2-receptor were 36.7 nM and 4 nM, respectively.
For `CCCCCCN(C)CCCC(C#N)(c1cc(OC)c(OC)c(OC)c1)C(C)C` (stereo not drawn) [Example 23, 5-[N-methyl-N-(n-hexyl)]-amino-2-(3,4,5-trimethoxyphenyl)-2-isopropylvaleronitrile hydrochloride] the same measures were 11.6 nM and 48.4 nM.
For the compound `CCCCCCN(C)CCC[C@@](C#N)(c1cc(OC)c(OC)c(OC)c1)C(C)C` [Example 24, (S)-5-[N-methyl-N-(n-hexyl)]-amino-2-(3,4,5-trimethoxyphenyl)-2-isopropylvaleronitrile hydrochloride], the Ki amounted to 8.6 nM at calcium channel and 21.1 nM at serotonin-S2-receptor.
The matching figures for `CCCCCCCCCCN(C)CCCC(C#N)(c1cc(OC)c(OC)c(OC)c1)C(C)C` (stereo not drawn) [Example 2, 5-[N-methyl-N-(n-decyl)]-amino-2-(3,4,5-trimethoxyphenyl)-2-isopropylvaleronitrile]: 19.1 nM and 21 nM.

The Ki is a measure of affinity in units of concentration, obtained from inhibition or displacement.
